Laboratory results reported in PubChem BioAssay AID1963443 (Molecular Pharmacology Branch, DTP, NCI, 2024).
“And” between values parts separate entries of the source, which are not always exact repeats. Identical values can stand only once.

Test system: MDA-MB-231 complex spheroids, growth inhibition
Assay: Anticancer human tumor MDA-MB-231 cell line growth inhibition [Asc];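 further: spheroids exposed to compounds for 7 days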
Conditions: for viability, T/C: stronger effect = lower value; active means viability on the fitted dose curve at most 10% of control; inactive means the rest
Protocol: Multicellular complex tumor spheroid response to apoptosis pathway targeting inhibitors Alrizomadlin, Pelcitoclax, and Dasminapant in combination with a variety of drugs and investigational agents in selected tumor cell lines
The MDM2 inhibitor alrizomadlin, the Bcl-2/Bcl-xL inhibitor pelcitoclax, and the IAPs inhibitor dasminapant were evaluated both individually and in combination with standard of care and investigational anticancer small molecules within a complex spheroid model of solid tumors. . Complex spheroids include a stromal component modeled by human endothelial cells (HUVEC) and fibroblasts modeled by human mesenchymal stem cells (MSCs). The concentration ranges selected for each drug and investigational agent were based upon clinically achievable concentrations if the clinical Cmax of the agent was known.
Compounds. The drugs and investigational agents: alrizomadlin (APG-115; NSC831270), pelcitoclax (APG-1252; NSC835773), dasminapant (APG-1387;NSC834197), TAK-243 (NSC785004), copanlisib (NSC809693), olaparib (NSC753686), talazoparib (NSC767125), cobimetinib (NSC 768068), eltanexor (KPT-8602, NSC 794443), abemaciclib (NSC 768073), sotorasib (NSC818433), adagrasib (NSC 831453), MRTX-1133 (NSC 836407), Iadademestat (ORY1001, NSC 806812), and RMC-4630 (NSC839698), were obtained from the NCI Developmental Therapeutics Program Chemical Repository. The FDA-approved anticancer drug set is available from the Developmental Therapeutics Program at https://dtp.cancer.gov/organization/dscb/obtaining/available plates.htm. […] The stock solutions were prepared in dimethyl sulfoxide (DMSO, Sigma-Aldrich, St. Louis, MO, cat. D2650) at 800-fold the tested concentration and stored at -70 degrees C prior to their use. All drugs and investigational agents were tested over a range starting from a high concentration at or near the clinical Cmax and decreasing in half-log increments. If the clinical Cmax for an agent had not been determined, the highest concentration tested was 10 microM.
The patient-derived cancer (PDC) cell lines include five colon adenocarcinomas: 186277-243-T-J2-PDC, 616215-338-R-J1-PDC, 439559-082-T-J2-PDC, 463943-066-T-J2-PDC, and 519858-162-T-J1-PDC; three pancreatic carcinomas: 323965-272-R-J2-PDC, 521955-158-R6-J3-PDC, and 521955-158-R2-J5-PDC; two uterine sarcomas: 327498-152-R-J2-PDC and 993429-296-R-J1-PDC; two rhabdomyosarcomas: 755483-174-R-J1-PDC and 772245-204-R-J1-PDC; two soft tissue sarcomas: 126254-015-R-J1-PDC and 494315-158-R-J1-PDC; two malignant fibrous histiocytomas: 317291-083-R-J1-PDC and 596521-263-R-J1-PDC; two breast carcinomas: 171881-019-R-J1-PDC and 885512-296-R-J2-PDC; and one ovarian carcinoma: 6556581-035-R-J-PDC were obtained from the NCI PDMR, (https://pdmr.cancer.gov). The established cell lines HSSY-2 synovial sarcoma (RRID:CVCL 8719), SYO-1 synovial sarcoma (RRID:CVCL_7146), MPNST malignant peripheral neural sheath tumor were obtained from the Sloan Kettering Institute. The following established cell lines were purchased from the American Type Culture Collection (ATCC, Manassas, VA), Sor the received from the NCI repository:, PANC-1 pancreatic carcinoma (CRL-1469, RRID:CVCL_0480), OVCAR-5 ovarian carcinoma (RRID:CVCL_1628), OVCAR-8 ovarian carcinoma (RRID:CVCL_1629), , MCF-7 breast carcinoma (CRL-12584, RRID:CVCL_0031), MDA-MB-231 breast carcinoma (CRL-12532, RRID:CVCL_0062), NCI-H1876 small cell lung carcinoma (CRL-5902, RRID:CVCL_1503), NCI-H510A small cell lung carcinoma (HTB-184, RRID:CVCL_1565), NCI-H1417 (CRL-5869, RRID:CVCL_1469), and NCI-H196 small cell lung carcinoma (CRL-5823, RRID:CVCL_1509). Dr. Peter Houghton (Greehey Children's Cancer Research Institute, University of Texas Health Science Center, San Antonio, TX) provided Rh-18 rhabdomyosarcoma (RRID:CVCL_1659). Pooled donor human umbilical vein endothelial cells (HUVEC, Lonza, cat. CC-2519) and human mesenchymal stem cells (hMSC, Lonza, cat. PT-2501) were purchased from Lonza (Walkersville, MD).
Cell Culture. […]

O=C(c1cc(Cc2n[nH]c(=O)c3ccccc23)ccc1F)N1CCN(C(=O)C2CC2)CC1 + CCN1C(C(=O)NC23CCC(C(=O)O)(CC2)CC3)C(c2cccc(Cl)c2F)C2(C(=O)Nc3cc(Cl)ccc32)C12CCCCC2
inactive: viability, T/C (second compound 0.03 µM, first compound 0.0316 µM) 99.1% | viability, T/C (second compound 0.03 µM, first compound 0.1 µM) 93.9% | viability, T/C (second compound 0.03 µM, first compound 0.316 µM) 93.8% | viability, T/C (second compound 0.03 µM, first compound 1 µM) 88.2% | viability, T/C (second compound 0.03 µM, first compound 3.16 µM) 88.8% | viability, T/C (second compound 0.03 µM, first compound 10 µM) 73.8% | viability, T/C (second compound 0.0949 µM, first compound 0.0316 µM) 106% | viability, T/C (second compound 0.0949 µM, first compound 0.1 µM) 104% | viability, T/C (second compound 0.0949 µM, first compound 0.316 µM) 98.8% | viability, T/C (second compound 0.0949 µM, first compound 1 µM) 99.5% | viability, T/C (second compound 0.0949 µM, first compound 3.16 µM) 90.2% | viability, T/C (second compound 0.0949 µM, first compound 10 µM) 77.3% | viability, T/C (second compound 0.3 µM, first compound 0.0316 µM) 103% | viability, T/C (second compound 0.3 µM, first compound 0.1 µM) 103% | viability, T/C (second compound 0.3 µM, first compound 0.316 µM) 100% | viability, T/C (second compound 0.3 µM, first compound 1 µM) 97.5% | viability, T/C (second compound 0.3 µM, first compound 3.16 µM) 93% | viability, T/C (second compound 0.3 µM, first compound 10 µM) 80.3% | viability, T/C (second compound 0.949 µM, first compound 0.0316 µM) 102% | viability, T/C (second compound 0.949 µM, first compound 0.1 µM) 107% | viability, T/C (second compound 0.949 µM, first compound 0.316 µM) 103% | viability, T/C (second compound 0.949 µM, first compound 1 µM) 101% | viability, T/C (second compound 0.949 µM, first compound 3.16 µM) 97.9% | viability, T/C (second compound 0.949 µM, first compound 10 µM) 80.7% | viability, T/C (second compound 3 µM, first compound 0.0316 µM) 99.1% | viability, T/C (second compound 3 µM, first compound 0.1 µM) 103% | viability, T/C (second compound 3 µM, first compound 0.316 µM) 94.8% | viability, T/C (second compound 3 µM, first compound 1 µM) 93.4% | viability, T/C (second compound 3 µM, first compound 3.16 µM) 86.7% | viability, T/C (second compound 3 µM, first compound 10 µM) 77.8%
> 10000 nM: IC50 (curve of first compound, second compound 0.03 µM) | IC50 (curve of first compound, second compound 0.0949 µM) | IC50 (curve of first compound, second compound 0.3 µM) | IC50 (curve of first compound, second compound 0.949 µM) | IC50 (curve of first compound, second compound 3 µM)

NC1CCC(NC2CC2c2ccccc2)CC1 (configuration not stated) + Cc1c(S(C)(=O)=O)c(-c2cc(F)cc(N3CCN(c4ccc(NS(=O)(=O)c5ccc(NC(CCN6CCC(C(=O)OCCCP(=O)(O)O)CC6)CSc6ccccc6)c(S(=O)(=O)C(F)(F)F)c5)cc4)CC3)c2)c(-c2ccc(Cl)cc2)n1C(C)C
> 100 nM: IC50 (curve of first compound, second compound 0.1 µM) | IC50 (curve of first compound, second compound 0.316 µM) | IC50 (curve of first compound, second compound 1 µM) | IC50 (curve of first compound, second compound 3.16 µM) | IC50 (curve of first compound, second compound 10 µM)
inactive: viability, T/C (second compound 0.1 µM, first compound 0.000316 µM) 102% | viability, T/C (second compound 0.1 µM, first compound 0.001 µM) 98.7% | viability, T/C (second compound 0.1 µM, first compound 0.00316 µM) 104% | viability, T/C (second compound 0.1 µM, first compound 0.01 µM) 99.1% | viability, T/C (second compound 0.1 µM, first compound 0.0316 µM) 92.5% | viability, T/C (second compound 0.1 µM, first compound 0.1 µM) 103% | viability, T/C (second compound 0.316 µM, first compound 0.000316 µM) 104% | viability, T/C (second compound 0.316 µM, first compound 0.001 µM) 103% | viability, T/C (second compound 0.316 µM, first compound 0.00316 µM) 106% | viability, T/C (second compound 0.316 µM, first compound 0.01 µM) 104% | viability, T/C (second compound 0.316 µM, first compound 0.0316 µM) 105% | viability, T/C (second compound 0.316 µM, first compound 0.1 µM) 103% | viability, T/C (second compound 1 µM, first compound 0.000316 µM) 96.1% | viability, T/C (second compound 1 µM, first compound 0.001 µM) 106% | viability, T/C (second compound 1 µM, first compound 0.00316 µM) 103% | viability, T/C (second compound 1 µM, first compound 0.01 µM) 108% | viability, T/C (second compound 1 µM, first compound 0.0316 µM) 105% | viability, T/C (second compound 1 µM, first compound 0.1 µM) 102% | viability, T/C (second compound 3.16 µM, first compound 0.000316 µM) 93.3% | viability, T/C (second compound 3.16 µM, first compound 0.001 µM) 94.2% | viability, T/C (second compound 3.16 µM, first compound 0.00316 µM) 99.5% | viability, T/C (second compound 3.16 µM, first compound 0.01 µM) 90.8% | viability, T/C (second compound 3.16 µM, first compound 0.0316 µM) 93.2% | viability, T/C (second compound 3.16 µM, first compound 0.1 µM) 94.7% | viability, T/C (second compound 10 µM, first compound 0.000316 µM) 101% | viability, T/C (second compound 10 µM, first compound 0.001 µM) 100% | viability, T/C (second compound 10 µM, first compound 0.00316 µM) 101% | viability, T/C (second compound 10 µM, first compound 0.01 µM) 101% | viability, T/C (second compound 10 µM, first compound 0.0316 µM) 96.6% | viability, T/C (second compound 10 µM, first compound 0.1 µM) 94.1%

CCN1CCN(Cc2ccc(Nc3ncc(F)c(-c4cc(F)c5nc(C)n(C(C)C)c5c4)n3)nc2)CC1
882 nM and 238 nM and > 1000 nM: IC50 (curve of compound)
inactive: viability, T/C (compound 0.00316 µM) 91.9% and 79.5% and 77% | viability, T/C (compound 0.01 µM) 92.6% and 86.9% and 80% | viability, T/C (compound 0.0316 µM) 78.5% and 79.9% and 88.6% | viability, T/C (compound 0.1 µM) 64.9% and 54.5% and 74.4% | viability, T/C (compound 0.316 µM) 51.7% and 48% and 64.4% | viability, T/C (compound 1 µM) 50.2% and 48.8% and 72%
